In ChEMBL document CHEMBL5126592, “Design, synthesis and activity against drug-resistant bacteria evaluation of C-20, C-23 modified 5-O-mycaminosyltylonolide derivatives” (Eur J Med Chem, 2022):
In brackets after ≈: the same amount, converted by molar mass. Activity calls are given as the source filed them. The rule behind the calls is not given here.

How the values were obtained:
[1] = Genotoxicity in Salmonella typhimurium TA98 assessed as number of revertants at 1.6x10^-6 mg/plate incubated for 72 hrs in presence of liver S9 fraction by Ames test (reference value: 43.67+/- 7.1); type: toxicity, subcellular; settings: salmonella enterica subsp. enterica serovar typhimurium, s9, 72 h
[2] = Genotoxicity in Salmonella typhimurium TA98 assessed as number of revertants at 2x10^-4 mg/plate incubated for 72 hrs in presence of liver S9 fraction by Ames test (reference value: 43.67+/- 7.1); type: toxicity, subcellular; settings: salmonella enterica subsp. enterica serovar typhimurium, s9, 72 h
[3] = Genotoxicity in Salmonella typhimurium TA98 assessed as number of revertants at 4x10^-5 mg/plate incubated for 72 hrs in absence of liver S9 fraction by Ames test (reference value: 57.33 +/- 3.06); type: toxicity; settings: salmonella enterica subsp. enterica serovar typhimurium, s9, 72 h
[4] = Toxicity in Kunming mouse infected with Staphylococcus aureus ATCC 25923 assessed as reduction in neutrophils at 20 to 40 mg/kg, iv measured after 1 hr by hematoxylin and eosin staining based microscopic analysis; type: organism-based; settings: in vivo, dose 20-40 mg/kg
[5] = Toxicity in Kunming mouse infected with Staphylococcus aureus ATCC 25923 assessed as normal alveolar size and morphology at 20 to 40 mg/kg, iv measured after 1 hr by hematoxylin and eosin staining based microscopic analysis; type: organism-based; settings: in vivo, dose 20-40 mg/kg
[6] = Toxicity in Kunming mouse infected with Staphylococcus aureus ATCC 25923 assessed as hyperelastic lung tissue at 20 to 40 mg/kg, iv measured after 1 hr by hematoxylin and eosin staining based microscopic analysis; type: organism-based; settings: in vivo, dose 20-40 mg/kg
Staphylococcus aureus [7] = assay: Antibacterial activity against Staphylococcus aureus ATCC 25923 infected in kunming mouse assessed as reduction in bacterial load at 20 to 40 mg/kg, iv measured after 1 hr; type: functional, organism-based; settings: dose 20-40 mg/kg
Staphylococcus aureus [8] = assay: Antibacterial activity against Staphylococcus aureus ATCC 29213 incubated for 16 to 20 hrs using 10^5 CFU/ml bacterial inoculum by broth microdilution method; type: functional; settings: time 16-20 hrs
Staphylococcus aureus [9] = assay: Antibacterial activity against Staphylococcus aureus ATCC 29213 incubated for 16 to 20 hrs using 10^4 CFU/ml bacterial inoculum by broth microdilution method; type: functional; settings: time 16-20 hrs
Staphylococcus aureus [10] = assay: Antibacterial activity against Staphylococcus aureus ATCC 29213 incubated for 16 to 20 hrs using 10^3 CFU/ml bacterial inoculum by broth microdilution method; type: functional; settings: time 16-20 hrs
Escherichia coli [11] = assay: Antibacterial activity against Escherichia coli ATCC 25922 incubated for 16 to 20 hrs using 10^5 CFU/ml bacterial inoculum by broth microdilution method; type: functional; settings: time 16-20 hrs
Escherichia coli [12] = assay: Antibacterial activity against Escherichia coli ATCC 25922 at pH 6.8 incubated for 16 to 20 hrs by broth microdilution method; type: functional; settings: time 16-20 hrs
Escherichia coli [13] = assay: Antibacterial activity against Escherichia coli ATCC 25922 at pH 6.6 incubated for 16 to 20 hrs by broth microdilution method; type: functional; settings: time 16-20 hrs
Escherichia coli [14] = assay: Antibacterial activity against Escherichia coli ATCC 25922 incubated for 16 to 20 hrs in absence of foetal bovine serum by broth microdilution method; type: functional; settings: time 16-20 hrs
Staphylococcus aureus [15] = assay: Antibacterial activity against Staphylococcus aureus ATCC 25923 incubated for 16 to 20 hrs by broth microdilution method; type: functional; settings: time 16-20 hrs
Cronobacter sakazakii = assay: Antibacterial activity against Cronobacter sakazakii ATCC 29544 incubated for 16 to 20 hrs by broth microdilution method; type: functional; settings: time 16-20 hrs
Klebsiella pneumoniae = assay: Antibacterial activity against Klebsiella pneumoniae ATCC 13883 incubated for 16 to 20 hrs by broth microdilution method; type: functional; settings: time 16-20 hrs
Pseudomonas aeruginosa = assay: Antibacterial activity against Pseudomonas aeruginosa LTP-3 incubated for 16 to 20 hrs by broth microdilution method; type: functional; settings: time 16-20 hrs
Staphylococcus aureus [16] = assay: Bactericidal activity against Staphylococcus aureus ATCC 29213 incubated for 20 to 24 hrs by CLSI based analysis; type: functional; settings: time 20-24 hrs
Staphylococcus aureus [17] = assay: Antibacterial activity against Staphylococcus aureus ATCC 29213 incubated for 16 to 20 hrs by broth microdilution method; type: functional; settings: time 16-20 hrs
Staphylococcus aureus [18] = assay: Ratio of MBC to MIC for Staphylococcus aureus ATCC 29213; type: functional
Escherichia coli [19] = assay: Antibacterial activity against Escherichia coli ATCC 25922 at pH 8.2 incubated for 16 to 20 hrs by broth microdilution method; type: functional; settings: time 16-20 hrs
Escherichia coli [20] = assay: Antibacterial activity against Escherichia coli ATCC 25922 at pH 8.6 incubated for 16 to 20 hrs by broth microdilution method; type: functional; settings: time 16-20 hrs
Staphylococcus aureus [21] = assay: Antibacterial activity against Staphylococcus aureus ATCC 29213 at pH 6.6 incubated for 16 to 20 hrs by broth microdilution method; type: functional; settings: time 16-20 hrs
Staphylococcus aureus [22] = assay: Antibacterial activity against Staphylococcus aureus ATCC 29213 at pH 7 incubated for 16 to 20 hrs by broth microdilution method; type: functional; settings: time 16-20 hrs
Staphylococcus aureus [23] = assay: Antibacterial activity against Staphylococcus aureus ATCC 29213 at pH 7.2 incubated for 16 to 20 hrs by broth microdilution method; type: functional; settings: time 16-20 hrs
Staphylococcus aureus [24] = assay: Antibacterial activity against Staphylococcus aureus ATCC 29213 at pH 8.6 incubated for 16 to 20 hrs by broth microdilution method; type: functional; settings: time 16-20 hrs
Escherichia coli [25] = assay: Antibacterial activity against Escherichia coli ATCC 25922 incubated for 16 to 20 hrs in presence of 10% foetal bovine serum by broth microdilution method; type: functional; settings: time 16-20 hrs
Escherichia coli [26] = assay: Antibacterial activity against Escherichia coli ATCC 25922 incubated for 16 to 20 hrs in presence of 25% foetal bovine serum by broth microdilution method; type: functional; settings: time 16-20 hrs
[27] = Genotoxicity in Salmonella typhimurium TA102 assessed as number of revertants at 1x10^-3 mg/plate incubated for 72 hrs in absence of liver S9 fraction by Ames test (reference value: 386.67 +/- 23.44); type: toxicity; settings: salmonella enterica subsp. enterica serovar typhimurium, s9, 72 h
[28] = Genotoxicity in Salmonella typhimurium TA102 assessed as number of revertants at 2x10^-4 mg/plate incubated for 72 hrs in absence of liver S9 fraction by Ames test (reference value: 386.67 +/- 23.44); type: toxicity; settings: salmonella enterica subsp. enterica serovar typhimurium, s9, 72 h
[29] = Genotoxicity in Salmonella typhimurium TA102 assessed as number of revertants at 4x10^-5 mg/plate incubated for 72 hrs in absence of liver S9 fraction by Ames test (reference value: 386.67 +/- 23.44); type: toxicity; settings: salmonella enterica subsp. enterica serovar typhimurium, s9, 72 h
[30] = Genotoxicity in Salmonella typhimurium TA102 assessed as number of revertants at 2x10^-4 mg/plate incubated for 72 hrs in presence of liver S9 fraction by Ames test (reference value: 465.33 +/- 18.04); type: toxicity, subcellular; settings: salmonella enterica subsp. enterica serovar typhimurium, s9, 72 h
[31] = Genotoxicity in Salmonella typhimurium TA102 assessed as number of revertants at 4x10^-5 mg/plate incubated for 72 hrs in presence of liver S9 fraction by Ames test (reference value: 465.33 +/- 18.04); type: toxicity, subcellular; settings: salmonella enterica subsp. enterica serovar typhimurium, s9, 72 h
[32] = Genotoxicity in Salmonella typhimurium TA1537 assessed as number of revertants at 2x10^-4 mg/plate incubated for 72 hrs in absence of liver S9 fraction by Ames test (reference value: 22.67 +/- 2.52); type: toxicity; settings: salmonella enterica subsp. enterica serovar typhimurium, s9, 72 h
[33] = Genotoxicity in Salmonella typhimurium TA1537 assessed as number of revertants at 4x10^-5 mg/plate incubated for 72 hrs in presence of liver S9 fraction by Ames test (reference value: 20 +/- 5); type: toxicity, subcellular; settings: salmonella enterica subsp. enterica serovar typhimurium, s9, 72 h
[34] = Genotoxicity in Salmonella typhimurium TA1535 assessed as number of revertants at 1.6x10^-6 mg/plate incubated for 72 hrs in absence of liver S9 fraction by Ames test (reference value: 14.33 +/- 0.58); type: toxicity; settings: salmonella enterica subsp. enterica serovar typhimurium, s9, 72 h

SMILES: CC[C@H]1OC(=O)C[C@@H](O)[C@H](C)[C@@H](O[C@@H]2O[C@H](C)[C@@H](O)[C@H](N(C)C)[C@H]2O)[C@@H](CCN(C)Cc2cn(-c3cnc4ccccc4c3)nn2)C[C@@H](C)C(=O)/C=C/C(C)=C/[C@@H]1CN1CCCCCC1
- Activity [1]: 42.33
- Activity [2]: 44.33
- Activity [3]: 62.33
- Activity [4]: Non-Toxic
- Activity [5]: Non-Toxic
- Activity [6]: Non-Toxic
- Activity (Staphylococcus aureus [7]): Active
- MIC (Staphylococcus aureus [8]): 0.125 µg/mL (≈ 0.139 µM)
- MIC (Staphylococcus aureus [9]): 0.125 µg/mL (≈ 0.139 µM)
- MIC (Staphylococcus aureus [10]): 0.0625 µg/mL (≈ 0.0693 µM)
- MIC (Escherichia coli [11]): 0.5 µg/mL (≈ 0.554 µM)
- MIC (Escherichia coli [12]): 8 µg/mL (≈ 8.87 µM)
- MIC (Escherichia coli [13]): 32 µg/mL (≈ 35.5 µM)
- MIC (Escherichia coli [14]): 1 µg/mL (≈ 1.11 µM)
- MIC (Staphylococcus aureus [15]): 0.125 µg/mL (≈ 0.139 µM)
- MIC (Cronobacter sakazakii): 4 µg/mL (≈ 4.43 µM)
- MIC (Klebsiella pneumoniae): 1 µg/mL (≈ 1.11 µM)
- MIC (Pseudomonas aeruginosa): 0.5 µg/mL (≈ 0.554 µM)
- MBC (Staphylococcus aureus [16]): 0.25 µg/mL (≈ 0.277 µM)
- MIC (Staphylococcus aureus [17]): 0.125 µg/mL (≈ 0.139 µM)
- Ratio (Staphylococcus aureus [18]): 2
- MIC (Escherichia coli [19]): 0.25 µg/mL (≈ 0.277 µM)
- MIC (Escherichia coli [20]): 0.25 µg/mL (≈ 0.277 µM)
- MIC (Staphylococcus aureus [21]): 32 µg/mL (≈ 35.5 µM)
- MIC (Staphylococcus aureus [22]): 2 µg/mL (≈ 2.22 µM)
- MIC (Staphylococcus aureus [23]): 0.5 µg/mL (≈ 0.554 µM)
- MIC (Staphylococcus aureus [24]): ≤ 0.0625 µg/mL
- MIC (Escherichia coli [25]): 2 µg/mL
- MIC (Escherichia coli [26]): 4 µg/mL
- Activity [27]: 418
- Activity [28]: 449.33
- Activity [29]: 429.33
- Activity [30]: 456.67
- Activity [31]: 433.33
- Activity [32]: 15.67
- Activity [33]: 14.67
- Activity [34]: 6.67
